“Also recorded” adds a separate entry of the source.
Experiments:
ABHD2^L33–E425 = molecular target: T1, ABHD2^L33–E425 (Homo sapiens, UniProt P08910); assay: ABHD2^L33-E425 fluorometric enzymatic activity assay with 7-HCA substrate; assay type: biochemical; settings: 10 nM enzyme, 10 µM 7-HCA; read-out: IC50 for ABHD2^L33-425, fluorometric assay using 7-HCA
T1 construct: expression for ABHD2 amino acids L33–E425, in which a predicted transmembrane domain (amino acids 1–32) is removed; His6-FLAG (N); made in house; host or cells: E. coli BL21(DE3)-R3-pRARE2
T1 sequence (P08910 33-425): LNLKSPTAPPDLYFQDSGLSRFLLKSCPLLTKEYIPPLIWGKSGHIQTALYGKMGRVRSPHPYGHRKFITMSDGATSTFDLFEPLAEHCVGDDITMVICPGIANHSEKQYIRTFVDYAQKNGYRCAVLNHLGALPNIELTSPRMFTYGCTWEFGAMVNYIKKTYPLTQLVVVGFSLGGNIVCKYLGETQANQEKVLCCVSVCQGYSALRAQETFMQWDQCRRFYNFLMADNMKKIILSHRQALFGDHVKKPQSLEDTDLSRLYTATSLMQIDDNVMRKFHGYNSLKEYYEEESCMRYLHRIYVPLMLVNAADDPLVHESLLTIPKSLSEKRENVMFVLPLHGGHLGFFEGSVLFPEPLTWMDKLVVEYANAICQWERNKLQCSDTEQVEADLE

human ABHD10 = molecular target: T2, human ABHD10 (Homo sapiens, UniProt Q9NUJ1); assay: ABHD10 colorimetric assay with p-nitrophenyl butyrate; assay type: biochemical; settings: 10 µM compound, 500 µM p-NPB
T2 construct: Constructs encoding amino acids T53—N306 of human ABHD10; His6-TEV site (N); made in house; host or cells: E. coli
T2 sequence (Q9NUJ1 53-306): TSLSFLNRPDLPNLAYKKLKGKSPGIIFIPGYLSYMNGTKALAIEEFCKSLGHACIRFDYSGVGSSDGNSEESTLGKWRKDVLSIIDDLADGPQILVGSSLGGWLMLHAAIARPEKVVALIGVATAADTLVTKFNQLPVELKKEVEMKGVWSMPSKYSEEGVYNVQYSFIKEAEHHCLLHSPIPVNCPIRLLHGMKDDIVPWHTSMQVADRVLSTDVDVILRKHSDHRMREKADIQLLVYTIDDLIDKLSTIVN
Experimental: (§1) Enzymatic activities of ABHD10 and ABHD11 were measured in a colorimetric assay using p-nitrophenyl butyrate (p-NPB) as substrate. Enzymes at 1500 nM ABHD10 and 125 nM ABHD11 in 20 mM HEPES pH 7.5, 150 mM NaCl, and 2% (v/v) DMSO were pre-incubated in 96-well plates with 50 µM test compound for 30 min at 4°C. Plates were then equilibrated at 37°C for 2 min, and reactions were initiated by adding 160 µl of pre-warmed substrate solution (same buffer with 625 µM p-NPB) to a total volume of 200 µl, yielding final assay concentrations of 300 nM ABHD10, 25 nM ABHD11, and 500 µM pNPB. The substrate solution was prepared immediately before addition to the enzyme mixtures. Absorbance at 405 nm was recorded on a SpectraMax iD3 plate reader (Molecular Devices) for 20 min with continuous monitoring at 30 s intervals.

human ABHD11 = molecular target: T3, human ABHD11 (Homo sapiens, UniProt Q8NFV4); assay: ABHD11 colorimetric assay with p-nitrophenyl butyrate; assay type: biochemical; settings: 10 µM compound, 500 µM p-NPB
T3 construct: residues V34—V315 of human ABHD11; His6-TEV site (N); made in house; host or cells: E. coli
T3 sequence (Q8NFV4 25-306 limits assumed): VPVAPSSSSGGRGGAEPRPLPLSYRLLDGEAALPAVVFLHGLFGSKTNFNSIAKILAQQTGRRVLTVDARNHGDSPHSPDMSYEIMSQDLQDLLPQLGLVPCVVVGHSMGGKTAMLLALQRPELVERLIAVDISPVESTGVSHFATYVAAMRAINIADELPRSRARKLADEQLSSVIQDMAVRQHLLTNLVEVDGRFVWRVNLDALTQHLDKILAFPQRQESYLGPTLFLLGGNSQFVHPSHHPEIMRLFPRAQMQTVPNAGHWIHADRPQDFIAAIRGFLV
Experimental: as §1

human sperm = assay: Sperm hyperactivation assay (CASA); assay type: cell-based; settings: 10 µM compound, 30 min
Experimental: Sperm hyperactivation was assessed in human sperm purified by density gradient centrifugation. Semen samples (n = 7) were allowed to liquefy for 15–30 min at 37°C, and up to 2 ml of liquified semen was layered onto a two-step GM501 gradient system (45%/90%; Gynemed; Sierksdorf, Germany) pre-equilibrated at 37°C. Gradients were centrifuged for 20 min at 400 × g (no break). The 90% pellet was collected, washed in SpermActive medium (Gynemed; composition per manufacturer: NaCl, KCl, MgSO4.7H2O, KH2PO4, 1.77 mM CaCl2.2H2O, D(+)-glucose anhydrous, sodium pyruvate, sodium lactate, EDTA, alanyl-glutamine, essential and non-essential amino acids, 25.71 mM NaHCO3, 15 mM HEPES, 5 g/l human serum albumin, 10 mg/l gentamicin, and phenol red), and incubated for at least 2 h at 37°C, 5% CO2.
For compound testing, sperm suspensions with 7.5 × 10^6 sperm/ml in SpermActive were treated with either DMSO (vehicle) or 10 µM test compound. For basal and induced hyperactivation conditions, DMSO or progesterone (3 µM), respectively, was added. Samples were incubated for 30 min at 37°C, 5% CO2, before motility analysis.
Motility was analyzed using a CASA system (CEROSII^TM Animal Motility, software version 1.16; Hamilton Thorne, Beverly, MA, USA), mounted on an Axiolab 5 microscope (Zeiss, Germany), equipped with a TPi-SX Thermal Plate (Tokai Hit; Shizuoka-ken, Japan) and a JAI CM-040-GE CCD camera (JAI; Tokyo, Japan). Leja slides (20 µm chamber depth; Leja Products B.V., Nieuw-Vennep, The Netherlands) were pre-warmed to 37°C, cleaned with lens paper, and loaded by capillary action with 6 µl sperm suspension; capillary correction was set to 1.3. Sperm tracks were recorded at 37°C using a 10× negative-phase objective, acquiring 60 frames at 60 Hz with 4 ms exposure and gain set to 600. For each sample and condition, 300–500 motile sperm from at least 10 non-overlapping fields were analyzed. Hyperactive sperm were identified using the SORT function with the following Boolean argument: VCL > 150 µm/s and LIN < 50% and ALH > 7 µm. For each sample and condition, the percentage of hyperactive sperm was normalized to the percentage of motile sperm, and the mean of two technical duplicates was reported.
Statistical analysis was performed using GraphPad Prism 10 for Windows (version 10.6.1). Data normality was assessed using Shapiro–Wilk test. Differences between basal and induced hyperactivation were evaluated using a paired t-test, with effective pairing confirmed across all comparisons. P < 0.05 was considered statistically significant.

## CC1CCCN(C(=O)c2ccccc2C(=O)c2ccccc2)C1 (centres unmarked) [Compound 4]
ABHD2^L33–E425
  IC50: 360 nM
Human ABHD10
  inhibition of ABHD10: no detectable inhibition
Human ABHD11
  inhibition of ABHD11: no detectable inhibition
Human sperm; 3 µM progesterone
  effect on progesterone-induced hyperactivation: not affected
Human sperm
  effect on basal hyperactivation: No statistically significant differences; also recorded: did not affect

From PMC13429874, “ABHD2 activity is not required for the non-genomic action of progesterone on human sperm” (Human Reproduction (Oxford, England), 2026)
